Assays:
[1] = tested on: murine keratinocytes; test: in vitro antiproliferative activity in murine keratinocytes (FIG. 1); assay type: cell-based; conditions: for antiproliferative activities: 1α,3β vs. 1β,3α diastereomers; for antiproliferative activity relative to 1,25D3: even at physiologically relevant 7 nM concentrations
Procedure: Each of these new hybrid analogs (Structures 3 and 4 of Scheme I) is evaluated initially for in vitro antiproliferative activity in murine keratinocytes, using the protocol described in Posner et al., J. Med. Chem. 1992, 35, pp. 3280-3287. The procedure utilized is described as follows:
(§1) Murine B16 malignant melanoma cells are grown and propagated in RPMI medium supplemented with 10% fetal bovine serum, L-glutamine, penicillin, and streptomycin and incubated at 37° C. in 5% CO2. For proliferation studies, cells are washed with PBS, trypsinized, and suspended in 8 ml of supplemented RPMI medium. The cell density is then determined using a hemacytometer and cells are resuspended in RPMI at 10,000 cells/cm^3. One ml of cell suspension (10,000 cells) is added to each well of a Falcon 24 Well Flat Bottom Tissue Culture Plate (Becton-Dickinson, Lincoln Park, N.J.). Plates are incubated for 24 hours to allow for cell attachment. The medium is then removed and replaced with fresh RPMI medium containing either 0.4% solvent (isopropanol) or vitamin D analog at concentrations ranging from 1-1000 nM in triplicate. When control wells near confluence, cells are washed with PBS, trypsinized, and suspended in 10 ml of Isoton II Coulter Balanced EIectrolyte Solution in FISHERbrand Dilu-Vial cuvettes. Cell number is then determined for each well as an average of two readings on a ZM Coulter Counter. Results are expressed as the average cell number for each vitamin D analog treatment group divided by the intital cell number (N/N0). The average standard deviation of the N/N0 cell number measurements was 0.21 in FIG. 1 and 2.1 in FIG. 2.

[2] = tested on: Murine B16 malignant melanoma cells; test: Antiproliferative assays using malignant melanoma cells (FIG. 2); assay type: cell-based; conditions: even at 1 nM concentration
Procedure: Antiproliferative assays using malignant melanoma cells
as §1, with “The average standard deviation of the N/N0 cell number measurements was 0.21 in FIG. 1 and 2.1 in FIG. 2.” left out

[3] = tested on: vitamin D receptor; test: in vitro vitamin D receptor-mediated transcriptional activity in ROS 17/2.8 cells (growth hormone reporter); assay type: cell-based; conditions: 48 h, rat osteosarcoma ROS 17/2.8 cells, vitamin D responsive element of human osteocalcin gene, 2 days, read-out: ED50 (transcriptional potency)
Procedure: The procedure utilized is described as follows:
Transfections and transcriptional activity of the analogs.
Rat osteosarcoma ROS 17/2.8 cells are maintained in 50% Dulbecco's modified Eagle medium (DMEM) and 50% F12 nutrient mixture supplemented with 10% fetal bovine serum. Forty eight hours before transfections, the cells are plated in 35-mm dishes at a density of 10^5 /dish in DMEM and 10% fetal bovine serum. ROS 17/2.8 cells are transfected with 2 μg of plasmid containing the vitamin D responsive element from the human osteocalcin gene ([…]) attached to the thymidine kinase promoter/growth hormone fusion gene. […] Medium samples for measurements of reporter gene expression (growth hormone) are collected 2 days after transfection. Growth hormone is measured by a radioimmunoassay as described by the manufacturer (Nichols Institute, San Juan Capistrano, Calif.).

[4] = tested on: Male F344 rats; test: Determination of urinary calcium levels / hypercalcemic effects in vivo (FIG. 3); parameters: species or system rat; conditions: 1 microgram per kg per os, seven consecutive days
Procedure: Because of their high antiproliferative and transcriptional activities in vitro, fluorinated hybrid analogs, Structures 3b and 4b, are evaluated for hypercalcemic effects in vivo. The procedure utilized is described as follows:
Determination of urinary calcium levels.
(§2) Male F344 rats (150 g) are housed individually in glass metabolism cages and received food and water ad libitum. After several days acclimation, rats receive 1 microgram per kg body weight of test compound per os for seven consecutive days in 150 microliters of propylene glycol/0.05M Na2 HPO4 (80:20). Urine samples, which are collected on ice, were centrifuged at 650×g for 10 min, adjusted to pH 6.0 as necessary, and assayed for calcium content spectrophotometrically at 575 nm using reagents and standards from Sigma Calcium Kit #587.

[5] = body weight gain in rats treated daily for one week; assay type: in vivo, rat; conditions: 1 microgram per kg per os, seven consecutive days
Procedure: as §2

Row | SMILES | antiproliferative activities [1] | antiproliferative activity relative to 1,25D3 [1] | antiproliferative potency relative to 1,25D3 [2] | EC50 [3] | calcium excretion into the urine [4] | suppression of body weight gain [5]
1 | C=C1/C(=C\C=C2/CCC[C@]3(C)C([C@H](C)CCC(F)(F)C(C)(C)O)=CC[C@@H]23)C[C@@H](O)C[C@@H]1CO [Structure 3a] | much less potent |  |  |  |  | 
2 | C=C1/C(=C\C=C2/CCC[C@]3(C)C([C@H](C)CCC(F)(F)C(C)(C)O)=CC[C@@H]23)C[C@H](O)C[C@H]1CO [Structure 3b] | significant antiproliferative activities | at least equal to that of 1,25D3 | more potent antiproliferative agents than 1,25D3 | 0.2 nM | no calcium elevation above control | not observed
3 | C=C1/C(=C\C=C2/CCC[C@]3(C)C([C@H](C)CCC(F)(F)C(O)(CC)CC)=CC[C@@H]23)C[C@@H](O)C[C@@H]1CO [Structure 4a] | much less potent |  |  |  |  | 
4 | C=C1/C(=C\C=C2/CCC[C@]3(C)C([C@H](C)CCC(F)(F)C(O)(CC)CC)=CC[C@@H]23)C[C@H](O)C[C@H]1CO [Structure 4b] | significant antiproliferative activities | at least equal to that of 1,25D3 | more potent antiproliferative agents than 1,25D3 | 0.05 nM | no calcium elevation above control | not observed
5 | C=C1/C(=C\C=C2/CCC[C@]3(C)[C@@H]([C@H](C)CCCC(C)(C)O)CC[C@@H]23)C[C@@H](O)C[C@@H]1O [calcitriol, 1α,25-dihydroxy vitamin D3, reference compound] |  |  |  |  | marked excretion of calcium into the urine | suppression of body weight gain
